Reference: patent publication US7033829B2, “Method to inhibit cell growth using oligonucleotides” (Trustees of Boston University, priority 2000, dated 2006)

Experiments:
[1] = test system: pCMV-Luc plasmid in human newborn fibroblasts; test: Repair of singlet oxygen-damaged pCMV-Luc plasmid in fibroblasts; assay type: cell-based; details: 100 μM 48 hours
Description: The plasmid pCMV-Luc is a non-replicating vector containing a reporter gene, luciferase, under the control of a strong constitutive cytomegalovirus promoter (gift of Dr. Hedayati, Johns Hopkins University). Singlet oxygen-induced DNA damage of the plasmid was generated by irradiating the plasmid with visible light for different time intervals (0 min, 10 min and 20 min), in the presence of the photosensitizer methylene blue. Fibroblasts (human newborn), pretreated for 48 hours with 100 μM pTpT or with diluent alone, were transfected with 0.5 μg of pCMV-Luc using Lipofect Aminem (Promega, Madison, Wis.). After two days, plasmid-encoded luciferase activity was determined in cell extracts (Promega luciferase assay). Pretreatment with pTpT enhanced the repair of singlet oxygen-induced DNA damage after […] by 179% and 228% respectively. FIG. 26 represents luciferase activity as a percent of luciferase activity assayed in fibroblasts transfected with sham irradiated plasmid.

p53 = p53 (Homo sapiens, UniProt P04637); test: p53 assay using hGH reporter plasmid in p53-transfected H1299 cells; assay type: cell-based; design: expressed in transfected cells; host or cells: H1299 lung carcinoma cells (p53-null); vector from Dr. Bert Vogelstein; details: 100 μM; 24 hours
Description: H1299 cells were similarly transfected with p53 expression vector or control vector. Two days after the transfection these cells were cotransfected with pPG-GH and PSV-β-galactosidase control vector, and treated with 100 μM pTpT. Twenty-four hours later, 250 μl of the medium and the cell lysate were harvested and processed as described above.

SOD2 = SOD2 western blot in fibroblasts; assay type: cell-based, human; details: 100 μM
Description: Fibroblasts (newborn human) were maintained in Dulbecco's Modified Eagle Medium (DMEM) supplemented with 10% calf serum (CS) and 100 μM pTpT or diluent as control. Total cellular proteins were harvested at different intervals after stimulation and processed for western blot analysis. The blot was reacted with anti SOD2 antibodies (The Binding Site, Inc. San Diego, Calif.). […] Coomassie blue-stained residual bands on the gel confirmed uniform loading of the different lanes.

Chain of p53 (P04637 whole entry): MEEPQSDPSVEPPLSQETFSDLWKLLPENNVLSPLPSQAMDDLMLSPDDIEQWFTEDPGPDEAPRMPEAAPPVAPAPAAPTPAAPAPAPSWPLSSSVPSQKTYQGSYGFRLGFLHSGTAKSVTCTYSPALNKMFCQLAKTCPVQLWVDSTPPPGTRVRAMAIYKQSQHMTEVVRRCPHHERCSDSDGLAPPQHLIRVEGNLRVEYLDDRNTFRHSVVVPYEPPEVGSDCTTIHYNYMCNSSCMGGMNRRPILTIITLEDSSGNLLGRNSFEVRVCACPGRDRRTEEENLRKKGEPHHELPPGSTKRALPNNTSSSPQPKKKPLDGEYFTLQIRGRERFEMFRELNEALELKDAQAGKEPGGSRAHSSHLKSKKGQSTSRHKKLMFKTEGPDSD

thymidine dinucleotide [pTpT]
enhanced repair of singlet oxygen-induced DNA damage ([1]; 10 mJ/cm^2): 179% | enhanced repair of singlet oxygen-induced DNA damage ([1]; 20 mJ/cm^2): 228% | increase in hGH secretion compared to diluent-treated cells (p53): 40% | SOD2 protein induction (SOD2): SOD2 induction was sustained at least through 32 hours
